Assay results published in patent US20170334899A1, “AMINO-SUBSTITUTED ISOTHIAZOLES” (Bayer Pharma Aktiengesellschaft, priority 2014, published 2017).

How the values were obtained:
[1] = test system: human cervical tumor cell line HeLa (ATCC CCL-2); assay: SAC-Formation - Nocodazole-Induced Assay; type: cell-based; details: Homo sapiens, HeLa, 24 h, HeLa cells, nocodazole 0.1 μg/ml together with test compound, decrease of mitotic cells (phospho-histone H3 Ser10)
How it was run: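 Loss of phospho-histone H3 Ser10-positive cells, counted against Hoechst-stained nuclei by high-content imaging, marked mitotic breakthrough. Compounds (0.005–20 μM, 0.5% DMSO) were co-dosed with 0.1 μg/ml nocodazole onto HeLa cells for 24 h at 37 °C. Curves were fitted with a four-parameter Hill equation.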

[2] = test system: human cervical tumor cell line HeLa (ATCC CCL-2); assay: SAC-Formation - Paclitaxel-Induced Assay; type: cell-based; details: Homo sapiens, HeLa, 24 h, HeLa cells, paclitaxel 0.05 μM, test range 0.005 μM-20 μM, read-out: IC50 [mol/l] SAC-Formation - Paclitaxel-Induced Assay
How it was run: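 Read-out is high-content imaging of anti-phospho-H3 Ser10 (mitosis) and Hoechst 33342 (DNA, cell number), with decreased mitotic fraction marking checkpoint breakthrough. Compounds (0.005–20 μM) and 0.05 μM paclitaxel co-added to overnight-plated HeLa for 24 h at 37° C; four-parameter Hill fit.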

Structure (SMILES) | IC50 [1] [nM] | IC50 [2] [nM]
CCN1CC[C@H](Oc2ccc(NC(=O)c3c(C)nsc3Nc3cnc(C(F)(F)F)cn3)cn2)[C@H](F)C1 [Example 424, N-(6-{[(3R,4S)-1-Ethyl-3-fluoropiperidin-4-yl]oxy}pyridin-3-yl)-3-methyl-5-{[5-(trifluoromethyl)pyrazin-2-yl]amino}-1,2-thiazole-4-carboxamide] | 74 | 320
Cc1nsc(Nc2cnc(C(F)(F)F)cn2)c1C(=O)Nc1ccc(OCCNC(=O)C(F)(F)F)nc1 [Example 425, 3-Methyl-N-(6-{2-[(trifluoroacetyl)amino]ethoxy}pyridin-3-yl)-5-{[5-(trifluoro-methyl)pyrazin-2-yl]amino}-1,2-thiazole-4-carboxamide] | 720 | 350
Cc1nsc(Nc2cnc(C(F)(F)F)cn2)c1C(=O)Nc1ccc(F)c(OCCCNC(=O)C(F)(F)F)c1 [Example 427, N-(4-Fluoro-3-{3-[(trifluoroacetyl)amino]propoxy}phenyl)-3-methyl-5-{[5-(trifluoro-methyl)pyrazin-2-yl]amino}-1,2-thiazole-4-carboxamide] | 700 | 920
Cc1nsc(Nc2cnc(C(F)(F)F)cn2)c1C(=O)Nc1ccc(OCCCNC(=O)C(F)(F)F)nc1 [Example 428, 3-Methyl-N-(6-{3-[(trifluoroacetyl)amino]propoxy}pyridin-3-yl)-5-{[5-(trifluoro-methyl)pyrazin-2-yl]amino}-1,2-thiazole-4-carboxamide] | 890 | 620
Cc1nsc(Nc2cnc(C(F)(F)F)cn2)c1C(=O)Nc1ccc(OCCN(C)C(=O)OC(C)(C)C)nc1 [Example 429, tert-Butyl methyl{2-[(5-{[(3-methyl-5-{[5-(trifluoromethyl)pyrazin-2-yl]amino}-1,2-thiazol-4-yl)carbonyl]amino}pyridin-2-yl)oxy]ethyl}carbannate] | 16 | 260
Cc1nsc(Nc2cncc(C(F)(F)F)n2)c1C(=O)Nc1ccc(OCCN(C)C(=O)OC(C)(C)C)nc1 [Example 430, tert-Butyl methyl{2-[(5-{[(3-methyl-5-{[6-(trifluoromethyl)pyrazin-2-yl]amino}-1,2-thiazol-4-yl)carbonyl]amino}pyridin-2-yl)oxy]ethyl}carbannate] | 11 | 45
Cc1nsc(Nc2cnc(C(F)(F)F)cn2)c1C(=O)Nc1ccc(OC2CCNCC2)c(F)c1 [Example 431, N-[3-Fluoro-4-(piperidin-4-yloxy)phenyl]-3-methyl-5-{[5-(trifluoromethyl)pyrazin-2-yl]amino}-1,2-thiazole-4-carboxamide] | 10000 | 10000
Cc1nsc(Nc2cnc3ccccc3n2)c1C(=O)Nc1cccc(NC(=O)C(F)(F)F)c1 [Example 432, 3-Methyl-5-(quinoxalin-2-ylamino)-N-{3-[(trifluoroacetyl)amino]phenyl}-1,2-thiazole-4-carboxamide] | 170 | 1200
Cc1nsc(Nc2ccc(C#N)cn2)c1C(=O)Nc1ccc(Nc2ccc(F)c(F)c2)nc1 [Example 433, 5-[(5-Cyanopyridin-2-yl)amino]-N-{6-[(3,4-difluorophenyl)amino]pyridin-3-yl}-3-methyl-1,2-thiazole-4-carboxamide] | 210 | 1300
Cc1nsc(Nc2cnc3ccccc3n2)c1C(=O)Nc1ccc(NCCN(C)C(=O)OC(C)(C)C)nc1 [Example 434, tert-Butyl methyl(2-{[5-({[3-methyl-5-(quinoxalin-2-ylamino)-1,2-thiazol-4-yl]carbonyl}amino)pyridin-2-yl]amino}ethyl)carbamate] | 970 | 3500
CC(=O)Nc1ccc(NC(=O)c2c(C)nsc2Nc2ccc(C#N)cn2)cn1 [Example 435, N-(6-Acetamidopyridin-3-yl)-5-[(5-cyanopyridin-2-yl)amino]-3-methyl-1,2-thiazole-4-carboxamide] | 12000 | 20000
